The source made the active and inactive calls. The calls are words filed in the database; no cut-off is given here.

The test system of series [1] is A-375. Briefly: Antimetastatic activity against human A-375 cells assessed as reduction in MMP-9 expression at 100 uM preincubated with SNP for 3 hrs followed by compound addition and measured after 24 hrs by gelatin zymography. In kind it is functional, cell-based.
The nature of series [2]: Selectivity index, ratio of IC50 for rabbit articular chondrocytes to IC50 for human A-375.
Series [3] has as its system A549. Briefly: Antimetastatic activity against human A549 cells assessed as reduction in MMP-2 expression at 100 uM preincubated with SNP for 3 hrs followed by compound addition and measured after 24 hrs by gelatin zymography. In kind it is functional, cell-based.
The test system of series [4] is A549. Nature of the series: Antiinflammatory activity against human A549 cells assessed as reduction in COX-2 expression at 100 uM preincubated with SNP for 3 hrs followed by compound addition and measured after 24 hrs by Western blot analysis. The format is functional, cell-based.
In series [5] the test system is A549. Nature of the series: Antimetastatic activity against human A549 cells assessed as reduction in MMP-9 expression at 100 uM preincubated with SNP for 3 hrs followed by compound addition and measured after 24 hrs by gelatin zymography. The format is functional, cell-based.
The nature of series [6]: Cytotoxicity against rabbit articular chondrocytes incubated for 24 hrs by MTT assay. In kind it is toxicity, cell-based, Oryctolagus cuniculus, Chondrocyte. On the technique in general: Tetrazolium assays rely on reduction of a dye to a coloured formazan, in cell work by metabolically active cells.
The test system of series [7] is A-375. Briefly: Antimetastatic activity against human A-375 cells assessed as reduction in MMP-2 expression at 100 uM preincubated with SNP for 3 hrs followed by compound addition and measured after 24 hrs by gelatin zymography. The format is functional, cell-based.
Series [8] concerns A549. Briefly: Antiproliferative activity against human A549 cells incubated for 24 hrs by MTT assay. In kind it is functional, cell-based. Particulars: A549, 24 h.
Series [9] has as its system A-375. Nature of the series: Antiproliferative activity against human A-375 cells incubated for 24 hrs by MTT assay. In kind it is functional, cell-based. The settings on record: A-375, 24 h.
Series [10] concerns A-375. Nature of the series: Antiinflammatory activity against human A-375 cells assessed as reduction in COX-2 expression at 100 uM preincubated with SNP for 3 hrs followed by compound addition and measured after 24 hrs by Western blot analysis. In kind it is functional, cell-based.
In series [11] the test system is A549. Briefly: Potency index, ratio of erlotinib IC50 to test compound IC50 for human A549 cells. The format is functional.
Series [12] concerns A-375. Nature of the series: Potency index, ratio of erlotinib IC50 to test compound IC50 for human A-375 cells. In kind it is functional.

In the case of `COc1ccc(C2=NN(c3nc(-c4ccc(Br)cc4)cs3)C(c3ccc(OCc4ccccc4)c(OC)c3)C2)cc1` (configuration not stated), the outcome in series [1], in series [3], in [5] and in [7] was inactive. Also, the Ratio IC50 in series [2] stood at 21.1. Further, the outcome in series [4] and in [10] was Active. The half-maximal inhibitory concentration (IC50) at 24 h in [6] stood at 435 µM. For the same compound, the IC50 is 27.3 µM in series [8] and 20.6 µM in series [9].
Consider `COc1ccc(C2=NN(c3nc(-c4ccc(Br)cc4)cs3)C(c3ccc(Br)cc3)C2)cc1` (configuration not stated), for which the IC50 was found to be 45.7 µM in [8] and 31.6 µM in [9].
Regarding `COc1ccc(C2=NN(c3nc(-c4ccc(Br)cc4)cs3)C(c3ccc(F)cc3)C2)cc1` (configuration not stated), the outcome in series [1], in series [3], in series [5] and in [7] was inactive. Also, the Ratio IC50 amounted to 9.04 in series [2], 1.7 in [11] and 1.7 in series [12]. Besides, the IC50 at 24 h in [6] was 146 µM. Moreover, the IC50 in [8] was determined as 20.3 µM; in series [9], 16.1 µM. Besides, the outcome in series [10] was Active.
Take `C#Cc1cccc(Nc2ncnc3cc(OCCOC)c(OCCOC)cc23)c1` [ERLOTINIB]: the Ratio IC50 in [2] is 2.45. In series [6], this compound showed an IC50 at 24 h of 63.5 µM. Besides, the concentration for half-maximal inhibition (IC50) came to 34.2 µM in series [8] and 25.9 µM in series [9].
With `COc1ccc(C2=NN(c3nc(-c4ccc(Br)cc4)cs3)C(c3ccc(C)cc3)C2)cc1` (configuration not stated), the outcome in series [1], in series [3], in series [5] and in series [7] was inactive. Further, the Ratio IC50 in [2] is 7.53. Moreover, in series [6], the IC50 at 24 h was determined as 151 µM. For the same compound, the IC50 in series [8] came out at 26.1 µM; in series [9], 20.1 µM.
As to `COc1ccc(C2=NN(c3nc(-c4ccc(Br)cc4)cs3)C(c3ccc(OC)cc3)C2)cc1` (configuration not stated), the values for the IC50 in series [8] and in series [9] were 51.8 µM and 45.1 µM, respectively.
Regarding `COc1ccc(C2CC(c3ccccc3)=NN2c2nc(-c3ccc(Br)cc3)cs2)cc1` (configuration not stated), the IC50 is 37.4 µM in series [8] and 40.5 µM in series [9].
Consider `Clc1ccc(C2CC(c3ccccc3)=NN2c2nc(-c3ccc(Br)cc3)cs2)cc1` (configuration not stated), for which the IC50 in series [8] was found to be 52 µM; in series [9], 42.8 µM.
On the same counts, the results for `Cc1ccc(C2CC(c3ccccc3)=NN2c2nc(-c3ccc(Br)cc3)cs2)cc1` (configuration not stated) are 126 µM and 103 µM.
As for `COc1ccc(C2=NN(c3nc(-c4ccc(Br)cc4)cs3)C(c3ccc(Cl)cc3)C2)cc1` (configuration not stated), the IC50 in series [8] amounted to 47.8 µM; in [9] it was 55.7 µM.
Consider `Brc1ccc(-c2csc(N3N=C(c4ccccc4)CC3c3ccc(Br)cc3)n2)cc1` (configuration not stated), for which the IC50 in series [8] is 74.2 µM; in series [9], 97.5 µM.
Take `COc1cc(C2CC(c3ccccc3)=NN2c2nc(-c3ccc(Br)cc3)cs2)ccc1OCc1ccccc1` (configuration not stated): the result in series [1], in [3], in [5] and in series [7] was inactive. Also, the Ratio IC50 in series [2] is 19.4. For the same compound, the result in series [4] and in series [10] was Active. Further, the IC50 at 24 h in series [6] came to 357 µM. The IC50 in [8] was 25.9 µM; in series [9], 18.4 µM.

As usually defined, the IC50 is the concentration that inhibits the measured activity by half. A lower IC50 goes with inhibition by little substance.

Source of the values: ChEMBL document CHEMBL5236636, “Synthesis, anticancer evaluation, and molecular docking studies of thiazolyl-pyrazoline derivatives” (Bioorg Med Chem Lett, 2023).
